In brackets after ≈: the same amount, converted by molar mass. Entries after “also recorded” stand apart in the source; their conditions may differ.
Columns and labels:
[1] = biological target: T1, Signal peptidase IB enzyme (SpsB) (Staphylococcus aureus, UniProt P0A070); assay: SpsB FRET peptidase assay with membrane fraction; details: for activity of SpsB: 100 μM compound, SpsB-containing membrane fraction of S. aureus, DMSO treated control 1.8 A·U/s; for SpsB peptidase activity (in words): FRET assay, 100 μM, compared to DMSO treated control
T1 sequence (P0A070 1-191): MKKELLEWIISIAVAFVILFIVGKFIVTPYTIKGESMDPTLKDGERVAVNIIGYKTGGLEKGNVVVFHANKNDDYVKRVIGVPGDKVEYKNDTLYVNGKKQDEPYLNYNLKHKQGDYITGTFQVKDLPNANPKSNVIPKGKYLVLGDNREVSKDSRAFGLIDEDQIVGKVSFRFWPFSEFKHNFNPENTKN

MRSA ATCC 33591 = assay: Neutropenic murine thigh model; type: in vivo, S. aureus; details: 20 mg/kg orally 30 min, 4 and 8 h after inoculation; vs sham-treated mice
Protocol: PK/X17-1-150 (20 mg/kg) and the corresponding vehicle were administered orally after 30 min, 4 and 8 h after bacterial inoculation, whereas levofloxacin (5 mg/kg) and the corresponding vehicle were administered intraperitoneally after 2, 6 and 10 h after bacterial inoculation. N=6 for vehicle i.p., levofloxacin i.p. and for PK/X17-1-150; n=5 for vehicle p.o. Data are expressed as mean values±SD. **, p<0.01; ***, p<0.001.

[2] = system: S. aureus NCTC 8325 persister cells; assay: Persister cell assay II; type: cell-based; details: TSB, with or without 30 μg/mL oxacillin; 20 h or 70 h; 2.4 μM PK/X17-1-150 or PK/X17-4-011, 24 μM sorafenib or PK/X17-2-011, 5 μg/mL ciprofloxacin
Protocol: Persister cell assay II. Tryptic soy broth (50 mL in 250 mL culture flasks) was inoculated 1:1000 with overnight cultures of NCTC 8325 and grown at 37° C. and 200 rpm until an OD600 of 4 was reached or overnight (ON). Serial dilution were prepared and plated to determine the cell numbers in the inoculum. […]. […] After 20 h (A) or 70 h (B) of treatment, cells were harvested, washed two times with PBS (10000×g, 3 min), serially diluted and plated on agar plates for determination of surviving cell numbers.

S. aureus = assay: Murine bloodstream infection model; type: in vivo; details: S. aureus-infected mice, 20 mg/kg, compared to vehicle control
Protocol: Bacterial loads in the heart (left) and liver (right) of S. aureus-infected mice treated with 20 mg/kg of PK/[…]-1-150 (squares) or vehicle alone (circles). Each symbol represents an individual mouse. Compilation data from three independent experiments are presented. N=14 for vehicle and PK/[…]-1-150. Horizontal lines represent the mean values. **, p<0.01.

Plasma stability assay = type: in vitro ADME, mouse; details: 10 μM, 37° C., up to 6 h (360 min), LC-MS
Protocol: The in vitro stability was tested by a LC-MS based method. Mouse plasma was purchased from biowest (mouse plasma w/lithium heparin, sterile filtered S2162-010) and used as a 1:1 dilution with potassium phosphate buffer (0.1 M, pH 7.4). Final assay concentration of DMSO from compound stocks was 1%. AV1, a β-lactone with known low plasma stability, was used as positive control at a concentration of 50 μM. The compound stability test in plasma was initiated by the addition of 10 μM compound of interest (50 μM in the case of AV1) to 250 μL of diluted mouse plasma at 37° C. Directly after compound addition the reaction mixture was shortly mixed by vortexing and the first sample of 25 μL was withdrawn (time point 0 min). Every sample was quenched immediately by the addition 30 μL of pre-chilled acetonitrile. The reaction mixture was incubated at 37° C. with gentle shaking at 600 rpm. At certain time points (5, 10, 20, 30, 60, 120, 240, 360 min) additional samples (25 μL) were taken for every test compound, quenched as described and stored at −20° C. […] Quantitative LC-MS analysis was performed by LCQ-Fleet Ion Trap Mass Spectrometer equipped with an APCI ion source and a DionexHPLC system using a Waters Xbridge BEH130 C18 column (5 μM 4.6×100 mm). […] Plasma stability was determined in three independent experiments.

[3] = system: A549, HeLa, HepG2 and NIH/3T3 cells; assay: Cytotoxicity assay (MTT); type: cell-based, human; details: 24 h incubation, various cell lines
Protocol: The MTT assay was performed in 96 well plates. A549, HeLa and HepG2 cells were seeded with 4000 cells/well, whereas NIH/3T3 cells were seeded with 2000 cells/well. Cells were grown to 30-40% confluence at 37° C. and 5% CO2 over a time span of 24 h. The medium was removed and 100 μL medium/well containing varying concentrations of the respective compound and a final DMSO concentration of 0.1% were added to the cells in triplicates and incubated at 37° C. and 5% CO2 for 24 h. 20 μL Thiazolyl blue tetrazolium bromide (5 mg/mL in PBS, Sigma Aldrich) were added to the cells and incubated at 37° C. and 5% CO2 for 4 h until complete consumption was observed. After removal of the medium, the resulting formazan was dissolved in 200 μL DMSO. Optical density was measured at 570 nm (562 nm) and background subtracted at 630 nm (620 nm) by a TECAN Infinite M200 Pro.

[4] = system: Staphylococcus aureus VA402525; assay: Minimal inhibitory concentration (MIC) assay; type: cell-based; details: Staphylococcus aureus VA402525 (clinical isolate); B medium

SMILES	activity of SpsB [1] [A·U/s]	SpsB peptidase activity (in words) ([1]; listed as PK/X17-1-150)	thigh bacterial load reduction (MRSA ATCC 33591) [log10 cfu/g thigh]	viable persister cells (CFU/mL) vs DMSO control [2]	reduction of bacterial load in heart (S. aureus) [log cfu]	reduction of bacterial load in liver (S. aureus) [log cfu]	stability in mouse plasma (Plasma stability assay)	cytotoxicity (MTT) [3]	MIC [4] [µM]	SpsB peptidase activity (in words) [1]
O=C(Nc1ccc2c(c1)OC(F)(F)O2)Nc1ccc(Cl)c(C(F)(F)F)c1 [Example 4, 1-(4-Chloro-3-(trifluoromethyl)phenyl)-3-(2,2-difluorobenzo[d][1,3]dioxol-5-yl)urea]	4.3	increased SpsB peptidase activity; also recorded: stimulates peptidase activity	1	significant reduction of viable cells	2	2	excellent stability in plasma for several hours	at concentrations higher compared to the antibacterial MICs	0.3 (≈ 0.118 µg/mL)	–
CNC(=O)c1cc(Oc2ccc(NC(=O)Nc3ccc(Cl)c(C(F)(F)F)c3)cc2)ccn1 [Sorafenib, reference compound]	2.6	–	–	significant reduction of viable cells	–	–	excellent stability in plasma for several hours	–	5 (≈ 2.32 µg/mL)	increased SpsB peptidase activity; also recorded: stimulates peptidase activity

Source: patent US12187696B2, “Urea motif containing compounds and derivatives thereof as antibacterial drugs” (Technische Universität München, priority 2016, dated 2025)
